Patent US11219632B2, “Skin pigmentation inhibitor” (Oriental Yeast Co., Ltd., priority 2017, dated 2022)

Key:
Assay type in all cases: in vivo, brown guinea pig
[1] = system: pigmentation induced by ultraviolet; experiment: Ultraviolet-induced skin pigmentation in brown guinea pigs, oral β-NMN (Example 1); details: for ΔL value at ultraviolet irradiation site: oral 500 mg/kg body weight once a day
Text: (§1) Brown guinea pigs (Kw1: line A-1, supplied from Kiwa Laboratory Animals Co., Ltd.) used for the subsequent experiment were bred under SPF environment throughout the entire experimental period. As in a case of humans, it is known that pigmentation of the brown guinea pigs of Kw1: line A-1 is caused by ultraviolet irradiation.
(§2) First, an unanesthetized brown guinea pig was fixed on a fixed plate in an abdominal position, and the back skin was sheared with an electric hair clipper and shaved with an electric shaver. Among the shaved area of the back skin, a region obtained by cutting out a region corresponding to the irradiation site by attaching a tape for bookbinding to an adhesive fabric stretchable bandage (ELASTOPORE No. 50, Nichiban Co., Ltd.) was attached on a site other than the ultraviolet irradiation site, and thereby the region other than the radiation site was light-shielded. Further, the eyes of the guinea pig were also light-shielded from ultraviolet by attaching lint cloth with the adhesive fabric stretchable bandage. Thereafter, ultraviolet (UVB) irradiation was performed from a distance of 40 cm using five SE lamps (wavelength of 250 to 350 nm, FL20S E, Toshiba Corporation) attached to an ultraviolet irradiation apparatus (Y-798-II, Orion Electric Co., Ltd.).
(§3) Regarding oral administration, a solution in which β-NMN (Oriental Yeast Co., Ltd.) was dissolved in injection water (Otsuka Pharmaceutical Factory, Inc.) was orally administered forcedly using a disposable syringe made of polypropylene (Terumo Corporation) attached with a catheter (a nutrition catheter manufactured by JMS Co., Ltd.). […] A dosage was calculated from a body weight value on an administration day or a day close to the administration day, and the dosage was 5 mL/kg.
Effects of […] on pigmentation induced by ultraviolet were examined using brown guinea pigs.
First, six brown guinea pigs were divided into a group administered β-NMN (NMN group) and a group administered injection water (control group). A day performed this group dividing was considered day 0 of administration, and from the next day, the β-NMN solution or injection water was orally administered to the guinea pigs of each group once a day for 42 days. The β-NMN solution was administered at a dosage of 500 mg/kg body weight. […]
(Measurement of pigmentation) L values (brightness) of the skin of the ultraviolet irradiation site of each guinea pig were measured by using Chroma Meter (CR-300, Konica Minolta, Inc.) on the first irradiation day (day 0), and on days 14, 21, and 28. […] On days 0, 14 and 21, L values were measured before the ultraviolet irradiation, and on day 28, L values were measured in the morning. […]

[2] = Body weight of brown guinea pigs during oral β-NMN administration (Example 1); details: for Body weight: oral 500 mg/kg
Experimental: First, six brown guinea pigs were divided into a group administered β-NMN (NMN group) and a group administered injection water (control group). A day performed this group dividing was considered day 0 of administration, and from the next day, the β-NMN solution or injection water was orally administered to the guinea pigs of each group once a day for 42 days. The β-NMN solution was administered at a dosage of 500 mg/kg body weight.
A body weight of each guinea pig was measured with an electronic balance in the morning once a week from the first administration day. The measurement was performed before the irradiation on the irradiation day, and before the administration on the β-NMN administration day.

[3] = system: pigmentation induced by ultraviolet; experiment: Ultraviolet-induced skin pigmentation in brown guinea pigs, oral and transdermal β-NMN (Example 2); details: for ΔL value at ultraviolet irradiation site: 28 days from first irradiation
Text: as §1, §2, §3
Effects of β-NMN on pigmentation induced by ultraviolet were examined using brown guinea pigs.
Ethanol (lot number: DSM5187, Wako Chemical Co., Ltd.), 1,3-butanediol (lot number: TWQ 6672, Wako Pure Chemical Industries, Ltd.), and injection water (lot number: K5F71, Otsuka Pharmaceutical Factory, Inc.) were mixed at a ratio of 1:1:8 (a volume ratio), and used as a solvent. A solution dissolved β-NMN in this solvent at a concentration of 0.5% by mass was used as a β-NMN-containing external preparation.
First, six brown guinea pigs were divided into a group orally administered β-NMN and a group not administered β-NMN. […]

NC(=O)c1ccc[n+]([C@@H]2O[C@H](COP(=O)([O-])O)[C@@H](O)[C@H]2O)c1 [NMN, Nicotinamide mononucleotide]
ΔL value at ultraviolet irradiation site ([1]; day 14 after first irradiation): 8.28 | ΔL value at ultraviolet irradiation site ([1]; day 21 after first irradiation): 8.99 | ΔL value at ultraviolet irradiation site ([1]; day 28 after first irradiation): 9.55 | Pigmentation compared to the control group ([1]; oral 500 mg/kg body weight once a day for 42 days): pigmentation was inhibited | Body weight ([2]; 0 days after first administration): 405 ± 22 g | Body weight ([2]; 1 day after first administration): 408 ± 23 g | Body weight ([2]; 8 days after first administration): 431 ± 23 g | Body weight ([2]; 15 days after first administration): 462 ± 33 g | Body weight ([2]; 22 days after first administration): 497 ± 34 g | Body weight ([2]; 29 days after first administration): 529 ± 29 g | Body weight ([2]; 36 days after first administration): 551 ± 35 g | Body weight ([2]; 43 days after first administration): 584 ± 33 g | Body weight difference versus control group ([2]; oral 500 mg/kg once a day for 42 days): no significant difference in body weight | ΔL value at ultraviolet irradiation site ([3]; NMN oral administration group (oral 500 mg/kg, solvent only on skin)): 6.01 | ΔL value at ultraviolet irradiation site ([3]; NMN transdermal & oral administration group (oral 500 mg/kg plus 0.05 mL of 0.5% by mass external preparation per site)): 5.20 | Pigmentation compared with the control group ([3]; oral administration only): pigmentation was inhibited | Pigmentation compared with only oral administration ([3]; transdermal administration in addition to oral administration): pigmentation was further inhibited
